Reference: patent publication US20240181089A1, “PHARMACEUTICAL POLYMER CONJUGATES” (priority 2021, published 2024)

Tests used:
[1] = system: folate receptor (FR) isoforms FR-α and FR-β; conditions: Vaitilingam et al.; cited from earlier work
[2] = system: 4T1 cells; experiment: Confocal microscopy mode-of-action test (cell detachment, anti-AIF, TUNEL, Hoechst) with or without PJ34; type: cell-based, murine; conditions: 1.5 h treatment
Excerpt: In addition to the cytotoxicity featuring the simultaneous uptake of PI and A5, Fatokun et al. previously defined PARP-dependent nuclear translocation of AIF and subsequent generation of massive DNA breaks as the hallmark features of parthanatos (Parthanatos: mitochondrial-linked mechanisms and therapeutic opportunities. British journal of pharmacology 171, 2000-2016 (2014)). To investigate whether the observed PI+A5 + necrotic 4T1 cell deaths by the zinc compounds (FIG. 5B and 5C) accompanied these features, we performed confocal microscopy studies after 1.5 h treatment for assessing the occurrence of PARP-dependent cytotoxicity, nuclear AIF translocation, and DNA breaks using fluorescent probes of anti-AIF, TUNEL, and Hoechst 33342 (Hoechst) DNA stain upon co-incubation with a potent PARP1 and PARP2 inhibitor PJ34. Assessment of PAR-polymer content, however, could not be incorporated into this experiment due to unavailability of sufficiently sensitive fluorescent probe for PAR-polymer during this study. Also, any longer treatment time could not be applied to this experiment due to extensive cytotoxic changes observed in the C010DS-Zn treated groups.

[3] = system: 4T1 murine triple negative breast cancer cell line; type: cell-based; conditions: 24 h treatment, LDH release, 4T1 cells, expressed in zinc concentration
Description: 24 h in vitro cytotoxicity was tested for each compound against 4T1 murine triple negative breast cancer cell line in obtaining their IC5024h values using lactate dehydrogenase release assay (LDH assay), which were expressed in zinc concentration (μM Zn) units for comparative viewing.

[4] = system: 4T1 cells; experiment: Apoptosis-necrosis flow cytometry with annexinV (A5) and propidium iodide (PI); type: cell-based, murine
[5] = system: cancer cell lines; conditions: NPL6; cited from earlier work
[6] = concentration-resolved study after 3 h treatment

## CN(CC1CNc2nc(N)[nH]c(=O)c2N1C)c1ccc(C(=O)N[C@@H](CCC(=O)O)C(=O)O)cc1 (some centres unmarked) [DMTHF, N^5, N^10-dimethyl tetrahydrofolate]
[1]
  folate receptor isoform preference: higher affinity for FR-α over FR-β

## O=S(=O)([O-])[O-].[Zn+2] [zinc sulfate]
[2]
  nuclear AIF translocation and DNA damages (TUNEL): failed to elicit significantly higher nuclear AIF translocation nor the DNA damages
[2]; all concentrations tested
  cell detachment: did not cause marked cell detachment
[3]
  IC50: 80.7 µM
[4]; [6]
  A5+ only apoptotic cell deaths: without notable increases
  proportion of PI+ only necrosis: 18%
  proportion of PI+A5+ necrosis: 4%
[4]; concentration-resolved study after 3 h treatment, maximum
  PI+ only or PI+A5+ necrotic cell death: ≤ 26%
[4]; time resolved study, 450 μM Zn
  time after treatment at which mainly PI+A5+ and minor PI+ only necrotic cell death was induced: 1.5 h

## zinc pyrithione [ZnPyr2]
[5]
  PARP cleavage: complete PARP cleavage
  mode of cell death: induced apoptosis in cancer cell lines
